Data reported in publication PMC3788796, “The Antimicrobial Domains of Wheat Puroindolines Are Cell-Penetrating Peptides with Possible Intracellular Mechanisms of Action” (PLoS ONE, 2013).
≈ marks a conversion by molar mass, not a printed value. Where “and” joins values, the source holds several entries; their conditions need not be identical. Identical values can stand only once.

What was measured:
S. cerevisiae cells = experiment: Propidium iodide uptake by yeast cells; type: cell-based, Saccharomyces cerevisiae; conditions: peptide 125 µg/mL, 1 h 30°C in PBS pH 7.4, PI 6 µg/mL 5 min; no-peptide control 5.7; average of 4 fields, two independent experiments
Procedure: S. cerevisiae was grown overnight at 30°C in 100 mL PDB and the cells collected by centrifugation and resuspended in Phosphate Buffered Saline (PBS: 137 mM NaCl, 2.7 mM KCl, 8 mM Na2HPO4, 1.46 mM KH2PO4; pH 7.4) to ∼1.5×10^7 cells/mL (OD600 = 0.6–0.8). 75 µL of the suspension was incubated with 25 µL of stock solutions of PuroA, Pina-M, Pina-W→F, PuroB and indolicidin (to give a final peptide concentration of 64, 125, 250 or 500 µg/mL), or with PBS (for no-peptide controls) for 1 h at 30°C, followed by staining with propidium iodide (PI) as described. PI stock solution (60 µg/mL) was prepared in MilliQ water and stored in dark at −20°C. It was diluted to 12 µg/mL before use, mixed 1∶1 with peptide-treated or untreated yeast cells (to final PI concentration 6 µg/mL), and the samples incubated in the dark for 5 min. A 10 µL aliquot of these was examined using a Nikon Eclipse 50 i fluorescence microscope with 561 nm excitation and 630/22 emission filter, at 400×magnification. The photomicrographs were taken under light and fluorescence for each field. Five randomly selected fields were recorded and scored for each sample.

E. coli cells = conditions: data from previous work; cited from earlier work
[1] = tested on: plasmid DNA (pBluescript SK+); experiment: Gel retardation assay for in vitro DNA binding; conditions: 100 ng plasmid DNA in 10 µL MilliQ water, 1 h room temperature, peptide 16–500 µg/mL, post-electrophoresis EtBr staining, triplicate assays; for Peptide concentration inducing gel retardation, Full: complete inhibition of migration
Procedure: This test assesses any peptide-DNA binding by noting the retardation of the rate of migration of DNA bands through agarose gels. A number of methods were tested. As per Hsu et al., DNA of a plasmid (200 ng) or a commercial molecular weight marker (50 ng) was mixed with a peptide (to final concentrations of 32, 64, 125 or 250 µg/mL) in 15 µL of 10 mM Tris-1 mM EDTA buffer (pH 8.0), incubated at room temperature for 2 min, then electrophoresed in 0.5% or 1.0% agarose gels containing 0.5 µg/mL ethidium bromide (EtBr). Following Park et al., 100 ng plasmid DNA was mixed with a peptide (to different concentrations) in 20 µL binding buffer (5% glycerol, 10 mM Tris-HCl (pH 8.0), 1 mM EDTA, 1 mM DTT, 20 mM KCl, 50 µg/mL BSA), held for 1 h at room temperature, then electrophoresed in EtBr-containing gels. Finally the protocols were modified to eliminate any interference of EtBr in the initial peptide-DNA binding. Plasmid DNA (100 ng) was mixed with a peptide (to final concentrations of 16, 32, 64, 125, 250 or 500 µg/mL) in 10 µL of MilliQ water, held at room temperature for 1 h and electrophoresed, followed by emersion of gels in EtBr solution (0.5 µg/mL) for 30 min before imaging.

[2] = tested on: Saccharomyces cerevisiae (ATCC 287); experiment: MIC of the peptides against yeast cells; type: cell-based; conditions: PDB, 96-well two-fold dilution 250 to 2 µg/mL, 0.5–2×10^3 cells/mL, overnight 30°C, growth observed visually
Procedure: Saccharomyces cerevisiae (ATCC 287) was grown in Potato Dextrose Broth (PDB) overnight at 30°C with shaking at 220 rpm. The cultures were vortexed vigorously and the cell suspension adjusted to 1–5×10^6 cells/mL with PDB (McFarland standard 0.5) and then diluted 1∶200 with PDB to a final concentration of 0.5–2×10^3 cells/mL [37]. The MIC assays were carried out in 96-well plates as described previously. Peptides (PuroA, Pina-M, Pina-W→F and PuroB) in 25 µL volumes were added to the first empty well and a two-fold dilution was carried out across each row with a starting peptide concentration of 250 µg/mL and a final one of 2 µg/mL. Test wells were subsequently inoculated with 75 µL yeast cells (0.5–2×10^3 cells/mL) and incubated overnight at 30°C. Negative control (no peptide) and positive control (fungicide Mycobutanil) wells were also prepared. The MIC was defined as the lowest concentration of the peptide required to inhibit fungal growth, observed visually.

E. coli (ATCC 25922) = experiment: E. coli filamentation assay (in vivo inhibition of DNA synthesis); type: cell-based, Escherichia coli; conditions: peptide 2–250 µg/mL, 3 h 37°C, Crystal Violet, light microscopy 1000×; triplicate
Procedure: The method as described was used to assess if the PIN-based peptides cause filamentation of E. coli cells, indicative of inhibition of in vivo DNA synthesis. E. coli (ATCC 25922) grown to logarithmic phase (OD600 = 0.2) was diluted to OD600 of ∼0.04. 75 µL of this culture was mixed with 25 µL of a peptide solution (to a final peptide concentration of 2–250 µg/mL) and incubated for 3 h at 37°C. 50 µL of the sample was spotted onto a glass slide, air dried, and stained with Crystal Violet for 1 min. Peptide mixed with water was used as negative control, and the Trp-rich AMP indolicidin (ILPWKWPWWPWRR-NH2) was used as a positive control due to its known filamentation effect. All samples were tested in triplicate. The cells were observed by light microscopy (1000×magnification).

[3] = Calcein dye leakage from bacteria-mimicking LUVs; type: biochemical; conditions: positive control, 1.0% Triton X100; average of duplicate experiments
Procedure: (§1) A calcein leakage assay as previously described was performed to determine the effects of PIN-based peptides on the permeability of synthetic large unilamellar vesicles (LUVs), designed to mimic bacterial and mammalian cell membranes. The phospholipids used were DOPC (1,2-dioleoyl-sn-glycero-3-phosphocholine), with zwitterionic head groups and DOPG (1,2-dioleoyl-sn-glycerol-3-[phosphor-rac-(1-glycerol)]), with negatively charged headgroups (Avanti® Polar lipids, Alabaster, USA). These were used to make DOPC:DOPG (1∶3) LUVs to mimic bacterial cell membranes, or DOPC only, to mimic mammalian cell membranes. Calcein-entrapped LUVs were prepared by the extrusion method using an Avanti mini extrusion apparatus (Avanti® Polar Lipids, Alabaster, USA). The DOPC:DOPG (a 1∶3 mixture) or DOPC were dissolved in chloroform (25 mg/mL) and aliquoted into glass test tubes to give a concentration of 2.6 mM when resuspended in 2 mL buffer. Chloroform was evaporated under a stream of N2 and the lipid films were dried overnight under vacuum. The films were then resuspended in 2.0 mL of 70 mM calcein buffer (in 10 mM Tris-HCl, pH 7.4) and incubated at room temperature for 30 minutes. To increase entrapment of the dye, five repeated freeze\thaw cycles were used by placing the vial in liquid N2 and then a warm water bath (37°C). The lipid mixture was then extruded through the mini-extruder 10 times through two stacked 0.1 µm pore-size filters. Free calcein was removed by centrifugation (10, 000×g, 10 min) three times and washing with 10 mM Tris, 100 mM NaCl buffer (pH 7.4). Standards of phosphorus (inorganic P; Pi) were prepared (0.05–1.5 mg/mL) using KH2PO4 and read at 820 nm and a linear standard curve was generated (Figure S1 in File S1). The phospholipid concentration of the vesicle preparations was determined by a total phosphorus assay. The assay reagent was prepared fresh by mixing 1 part of 1% ascorbic acid with 6 parts of 0.42% ammonium molybdate•4H2O in H2SO4 and stored on ice. 7 µL of it was added to 3 µL of vesicle suspensions and incubated for 20 min at 45°C. […] The standard curve of phosphorus standards (Figure S1 in File S1) was used to determine the Pi concentration in a LUV preparation, and this was converted to phospholipid concentration (Table S1 in File S1) to adjust the preparations to the required 10 µM phospholipid concentration prior to peptide treatment.
(§2) The calcein-filled LUVs were diluted with 10 mM Tris, 100 mM NaCl buffer (pH 7.4) to a final phospholipid concentration of 10 µM. The experiments were performed in a Varian Cary Eclipse fluorescence spectrophotometer with excitation and emission wavelengths of 496 nm and 515 nm, slit widths of […] and a PMT detector of 600 V. The peptides (PuroA, Pina-M, Pina-W→F and PuroB) were added to LUVs to a final peptide concentration of 8–125 µg/mL in 100 µL volumes and the fluorescence (F) monitored for 5 min at 60 s intervals. The total calcein fluorescence (FT) was determined by addition of 1.0% Triton X100. The dye leakage was calculated as % Leakage = ((F – F0)/(FT – F0)), F0 being fluorescence of each sample at T = 0.

[4] = Calcein dye leakage from mammalian-mimicking LUVs; type: biochemical; conditions: positive control, 1.0% Triton X100; average of duplicate experiments
Procedure: as §1, §2

Compound: CC[C@H](C)[C@H](N)C(=O)N[C@@H](CC(C)C)C(=O)N1CCC[C@H]1C(=O)N[C@@H](Cc1c[nH]c2ccccc12)C(=O)N[C@@H](CCCCN)C(=O)N[C@@H](Cc1c[nH]c2ccccc12)C(=O)N1CCC[C@H]1C(=O)N[C@@H](Cc1c[nH]c2ccccc12)C(=O)N[C@@H](Cc1c[nH]c2ccccc12)C(=O)N1CCC[C@H]1C(=O)N[C@@H](Cc1c[nH]c2ccccc12)C(=O)N[C@@H](CCCNC(=N)N)C(=O)N[C@@H](CCCNC(=N)N)C(N)=O [Indolicidin, reference compound]
- % fluorescent cells (propidium iodide uptake) (S. cerevisiae cells): 100%
- MIC against E. coli cells (E. coli cells): 32 ± 0 µg/mL (≈ 16.8 µM)
- Peptide concentration inducing gel retardation, Partial [1]: 32 ± 0 µg/mL
- Peptide concentration inducing gel retardation, Full [1]: 64 ± 0 µg/mL
- Peptide concentration inducing gel retardation, Full ([1]; listed as indolicidin): 64 µg/mL
- MIC against S. cerevisiae [2]: 125 µg/mL
- Minimum peptide concentration inducing filamentation in E. coli (E. coli (ATCC 25922)): 32 ± 0 µg/mL

Compound: Triton x100 [reference compound]
- % Calcein leakage from DOPC:DOPG LUVs [3]: 99.0%
- % Calcein leakage from DOPC LUVs [4]: 99.0%

Compound: MPLSWFFPRTWGKR-NH2 [GSP-5D, peptide based on the wheat Grain softness protein-1 (Gsp-1-5D)]
- MIC against E. coli cells (E. coli cells): 64 ± 0 µg/mL
- Peptide concentration inducing gel retardation, Partial [1]: 32 ± 0 µg/mL
- Peptide concentration inducing gel retardation, Full [1]: 64 µg/mL and 64 ± 0 µg/mL
